# Assay results from US9663536B2, “Inhibitors of human immunodeficiency virus replication” (priority 2013, dated 2017).
# Tested on: recombinant NL-Rluc virus
# Assay: Inhibition of HIV replication (NL-Rluc virus in MT-2 cells, luciferase readout)
# Format: cell-based
# Conditions: Human immunodeficiency virus 1, MT2, 120 h
row,SMILES,EC50
1,"Cc1nc2cc3nn2c(c1[C@H](OC(C)(C)C)C(=O)O)N1CCC(C)(CC1)OC/C=C/CCOc1ccccc1Cc1cnc-3s1 [Example 8, (2S)-2-(tert-Butoxy)-2-[(24E)-4,28-dimethyl-21,27-dioxa-33-thia-1,5,7,8,11-pentaazahexacyclo[26.2.2.1^6,9.1^10,13.0^2,7.0^15,20]tetratriaconta-2,4,6(34),8,10,12,15(20),16,18,24-decaen-3-yl]acetic Acid]",8 nM
2,"Cc1nc2cc3nn2c(c1[C@H](OC(C)(C)C)C(=O)O)N1CCC(C)(CC1)OCCCCCOc1ccccc1Cc1cnc-3s1 [Example 9, (2S)-2-(tert-Butoxy)-2-{4,28-dimethyl-21,27-dioxa-33-thia-1,5,7,8,11-pentaazahexacyclo[26.2.2.1^6,9.1^10,13.0^2,7.0^15,20]tetratriaconta-2,4,6(34),8,10,12,15(20),16,18-nonaen-3-yl}acetic acid]",2 nM
3,"Cc1nc2cc3nn2c(c1[C@H](OC(C)(C)C)C(=O)O)N1CCC(C)(CC1)OC/C=C/COc1ccccc1Cc1cnc-3o1 [Example 10, (2S)-2-(tert-Butoxy)-2-[(23E)-4,27-dimethyl-21,26,32-trioxa-1,5,7,8,11-pentaazahexacyclo[25.2.2.1^6,9.1^10,13.0^2,7.0^15,20]tritriaconta-2,4,6(33),8,10,12,15 (20),16,18,23-decaen-3-yl]acetic acid]",2 nM
4,Cc1nc2cc3nn2c(c1[C@H](OC(C)(C)C)C(=O)O)N1CCC(C)(CC1)OCCCC[C@@H](C)Oc1ccccc1Cc1cnc-3s1 [Example 11],3 nM
5,"Cc1nc2cc3nn2c(c1[C@H](OC(C)(C)C)C(=O)O)N1CCC(C)(/C=C/C=C/CCc2ccccc2Cc2cnc-3s2)CC1 [Example 12, (2S)-2-(tert-Butoxy)-2-[(23E,25E)-4,27-dimethyl-32-thia-1,5,7,8,11-pentaazahexacyclo[25.2.2.1^6,9.1^10,13.0^2,7.0^15,20]tritriaconta-2,4,6(33),8,10,12,15(20),16,18,23,25-undecaen-3-yl]acetic acid]",8 nM
6,"Cc1nc2cc3nn2c(c1[C@H](OC(C)(C)C)C(=O)O)N1CCC(C)(/C=C/CCCCc2ccccc2Cc2cnc-3s2)CC1 [Example 13, (2S)-2-(tert-Butoxy)-2-[(25E)-4,27-dimethyl-32-thia-1,5,7,8,11-pentaazahexacyclo[25.2.2.1^6,9.1^10,13.0^2,7.0^15,20]tritriaconta-2,4,6(33),8,10,12,15(20),16,18,25-decaen-3-yl]acetic acid]",12 nM
7,"Cc1nc2cc3nn2c(c1[C@H](OC(C)(C)C)C(=O)O)N1CCC(C)(CCCCCCc2ccccc2Cc2cnc-3s2)CC1 [Example 14, (2S)-2-(tert-Butoxy)-2-{4,27-dimethyl-32-thia-1,5,7,8,11-pentaazahexacyclo[25.2.2.1^6,9.1^10,13.0^2,7.0^15,20]tritriaconta-2,4,6(33),8,10,12,15(20),16,18-nonaen-3-yl}acetic acid]",41 nM
8,"Cc1nc2cc3nn2c(c1[C@H](OC(C)(C)C)C(=O)O)N1CCC(C)(CC/C=C/C[C@@H](C)Oc2cc(F)ccc2Cc2cnc-3s2)CC1 [Example 19, (2S)-2-(tert-Butoxy)-2-[(22R,24E)-18-fluoro-4,22,28-trimethyl-21-oxa-33-thia-1,5,7,8,11-pentaazahexacyclo[26.2.2.1^6,9.1^10,13.0^2,7.0^15,20]tetratriaconta-2,4,6(34),8,10,12,15(20),16,18,24-decaen-3-yl]acetic acid]",17 nM
9,"Cc1nc2cc3nn2c(c1[C@H](OC(C)(C)C)C(=O)O)N1CCC(C)(CC/C=C\C[C@@H](C)Oc2cc(F)ccc2Cc2cnc-3s2)CC1 [Example 20, (2S)-2-(tert-Butoxy)-2-[(22R,24Z)-18-fluoro-4,22,28-trimethyl-21-oxa-33-thia-1,5,7,8,11-pentaazahexacyclo[26.2.2.1^6,9.1^10,13.0^2,7.0^15,20]tetratriaconta-2,4,6(34),8,10,12,15(20),16,18,24-decaen-3-yl]acetic acid]",32 nM
10,"Cc1nc2cc3nn2c(c1[C@H](OC(C)(C)C)C(=O)O)N1CCC(C)(CC/C=C/COc2ccccc2Cc2cnc-3s2)CC1 [Example 24, (2S)-2-(tert-Butoxy)-2-[(23E)-4,27-dimethyl-21-oxa-32-thia-1,5,7,8,11-pentaazahexacyclo[25.2.2.1^6,9.1^10,13.0^2,7.0^15,20]tritriaconta-2,4,6(33),8,10,12,15(20),16,18,23-decaen-3-yl]acetic Acid]",11 nM
11,"Cc1nc2cc3nn2c(c1[C@H](OC(C)(C)C)C(=O)O)N1CCC(C)(CC1)OCCCCOc1ccccc1Cc1cnn-3c1 [Example 25, (2S)-2-(tert-Butoxy)-2-{4,27-dimethyl-21,26-dioxa-1,5,7,8,10,11-hexaazahexacyclo[25.2.2.1^6,9.1^10,13.0^2,7.0^15,20]tritriaconta-2,4,6(33),8,11,13(32),15(20),16,18-nonaen-3-yl}acetic acid]",5 nM
12,"Cc1nc2cc3nn2c(c1[C@H](OC(C)(C)C)C(=O)O)N1CCC(C)(CC1)OC/C=C/COc1ccccc1Cc1cnn-3c1 [Example 26, (2S)-2-(tert-Butoxy)-2-[(23E)-4,27-dimethyl-21,26-dioxa-1,5,7,8,10,11-hexaazahexacyclo[25.2.2.1^6,9.1^10,13.0^2,7.0^15,20]tritriaconta-2,4,6(33),8,11,13(32),15(20),16,18,23-decaen-3-yl]acetic acid]",2 nM
13,"Cc1nc2cc3nn2c(c1[C@H](OC(C)(C)C)C(=O)O)N1CCC(C)(CC1)OC/C=C/COc1c(F)cccc1Cc1cnn-3c1 [Example 27, (2S)-2-(tert-Butoxy)-2-[(23E)-19-fluoro-4,27-dimethyl-21,26-dioxa-1,5,7,8,10,11-hexaazahexacyclo[25.2.2.1^6,9.1^10,13.0^2,7.0^15,20]tritriaconta-2,4,6(33),8,11,13(32),15(20),16,18,23-decaen-3-yl]acetic acid]",48 nM
14,"Cc1nc2cc3nn2c(c1[C@H](OC(C)(C)C)C(=O)O)N1CCC(C)(CC1)OCCCCOc1c(F)cccc1Cc1cnn-3c1 [Example 28, (2S)-2-(tert-Butoxy)-2-{19-fluoro-4,27-dimethyl-21,26-dioxa-1,5,7,8,10,11-hexaazahexacyclo[25.2.2.1^6,9.1^10,13.0^2,7.0^15,20]tritriaconta-2,4,6(33),8,11,13(32),15(20),16,18-nonaen-3-yl}acetic acid]",11 nM
15,"Cc1nc2cc3nn2c(c1[C@H](OC(C)(C)C)C(=O)O)N1CCC(C)(CC1)OC/C=C/COc1ccc(F)cc1Cc1cnn-3c1 [Example 29, (2S)-2-(tert-Butoxy)-2-[(23E)-17-fluoro-4,27-dimethyl-21,26-dioxa-1,5,7,8,10,11-hexaazahexacyclo[25.2.2.1^6,9.1^10,13.0^2,7.0^15,20]tritriaconta-2,4,6(33),8,11,13(32),15(20),16,18,23-decaen-3-yl]acetic acid]",2 nM
16,"Cc1nc2cc3nn2c(c1[C@H](OC(C)(C)C)C(=O)O)N1CCC(C)(CC1)OCCCCOc1ccc(F)cc1Cc1cnn-3c1 [Example 30, (2S)-2-(tert-Butoxy)-2-{17-fluoro-4,27-dimethyl-21,26-dioxa-1,5,7,8,10,11-hexaazahexacyclo[25.2.2.1^6,9.1^10,13.0^2,7.0^15,20]tritriaconta-2,4,6(33),8,11,13(32),15(20),16,18-nonaen-3-yl}acetic acid]",2 nM
